Source: PubChem BioAssay AID2060492 (Molecular Pharmacology Branch, DTP, NCI, 2025)

Tested on: 695427-040-R-J1-PDC complex spheroids, viability percent T/C
Test: Anticancer human tumor 695427-040-R-J1-PDC patient-derived colon adenocarcinoma cell line growth inhibition [GQUAD]
Conditions: for IC50: curve of first compound; for viability, T/C: stronger effect = lower value
From the text: DNA G-quadruplex Stabilizer Agents in Combinations in Complex Spheroids
A high-throughput screen of multi-cell type tumor spheroids was designed to identify active combinations of DNA G-quadruplex stabilizer agents and targeted small molecules. Complex spheroids include a stromal component modeled by human endothelial cells (HUVEC) and fibroblasts modeled by human mesenchymal stem cells (MSCs). The concentration ranges selected for each drug and investigational agent were based upon clinically achievable concentrations if the clinical Cmax of the agent was known.
Compounds. The drugs and investigational agents: pidnarulex (CX-5461; NSC782164), APTO-253 (NSC789042), BRACO-19 (NSC847499), peposertib (NSC802822), ceralasertib (NSC780249), elimusertib (NSC800525), camonsertib (NSC841442), AZD-1390 (NSC803789), olaparib (NSC753686), talazoparib (NSC767125), ART-558 (NSC835418), sotorasib (NSC818433), MRTX-1133 (NSC836407), SN-38 (NSC673596), topotecan (NSC609699), etoposide (NSC141540), doxorubicin (NSC123127), gemcitabine (NSC613327), 5-fluorouracil (NSC19893), paclitaxel (NSC125973), vemurafenib (NSC761431), panobinostat (NSC761190), R-306465 (JNJ-16241199; NSC773264), adavosertib (NSC754352), TP-3654 (NSC805149), carboplatin (NSC241240), KSQ-4279 (NSC840948), and staurosporine (NSC755774) were obtained from the National Cancer Institute (NCI) Developmental Therapeutics Program Chemical Repository (34). The FDA-approved anticancer drug set is available from the NCI Developmental Therapeutics Program. […] The stock solutions were prepared in dimethyl sulfoxide (DMSO, Sigma-Aldrich, St. Louis, MO, cat. D2650) at 800-fold the tested concentration and stored at -70 degrees C prior to their use. All drugs and investigational agents were tested over a range starting from a high concentration at or near the clinical Cmax and decreasing in half-log increments. If the clinical Cmax for an agent had not been determined, the highest concentration tested was 10 microM.
2.3 Cell Culture. All cells were maintained in an incubator at 37 degrees C and 5% CO2 with 95% humidity. The PDC lines were cultured according to standard operating procedures established by the NCI PDMR. All PDCs were thawed and cultured in Matrigel-coated flasks prepared with a working solution of 1X Ham's F-12 nutrient mix, without supplementation (Invitrogen, cat. 11765054), 100 U/mL penicillin-streptomycin (Invitrogen, cat. 15140122), and 2.5% Matrigel (Corning Inc., cat. 354248) for the first three passages. The 857933-349-R-J2-PDC line was cultured in 6C/Colon 1B media, which includes advanced DMEM/F-12 (Thermo Fisher Scientific, cat. 12634028), 10 mM HEPES (Thermo Fisher Scientific, cat. 15630080), 1X GlutaMAX supplement (Thermo Fisher Scientific, cat. 35050061), 0.1 mg/mL primocin (InvivoGen, cat. ant-pm-2), 10% defined fetal bovine serum, heat inactivated (HyClone Laboratories Inc., cat. SH30070.03HI), 50% L-WRN conditioned media (ATCC, cat. CRL-3276), 1.25 mM N-Acetyl-L-cysteine (Sigma-Aldrich, cat. A9165), 10 mM nicotinamide (Sigma-Aldrich, cat. N0636), 1X B-27 supplement (Thermo Fisher Scientific, cat. 17504044), 1X N-2 supplement (Thermo Fisher Scientific, cat. 17502048), 10 microM Y-27632 dihydrochloride (Tocris Bioscience, cat. 1254), and 50 ng/mL human EGF recombinant protein (Thermo Fisher Scientific, cat. PHG0311). The 485176-168-R4-J1-PDC line was cultured in Panc media, which includes all 6C/Colon 1B media components plus 100 ng/mL human FGF-10 (Thermo Fisher Scientific, cat. 100-26), 500 nM SB-431542 (Selleckchem, cat. S1067), and gastrin (Tocris, cat. 3006).
[…]

[1] = second compound 0.0316 µM, first compound 0.0316 µM
[2] = second compound 0.0316 µM, first compound 0.1 µM
[3] = second compound 0.0316 µM, first compound 0.316 µM
[4] = second compound 0.0316 µM, first compound 1 µM
[5] = second compound 0.0316 µM, first compound 3.16 µM
[6] = second compound 0.0316 µM, first compound 10 µM
[7] = second compound 0.1 µM, first compound 0.0316 µM
[8] = second compound 0.1 µM, first compound 0.1 µM
[9] = second compound 0.1 µM, first compound 0.316 µM
[10] = second compound 0.1 µM, first compound 1 µM
[11] = second compound 0.1 µM, first compound 3.16 µM
[12] = second compound 0.1 µM, first compound 10 µM
[13] = second compound 0.316 µM, first compound 0.0316 µM
[14] = second compound 0.316 µM, first compound 0.1 µM
[15] = second compound 0.316 µM, first compound 0.316 µM
[16] = second compound 0.316 µM, first compound 1 µM
[17] = second compound 0.316 µM, first compound 3.16 µM
[18] = second compound 0.316 µM, first compound 10 µM
[19] = second compound 1 µM, first compound 0.0316 µM
[20] = second compound 1 µM, first compound 0.1 µM
[21] = second compound 1 µM, first compound 0.316 µM
[22] = second compound 1 µM, first compound 1 µM
[23] = second compound 1 µM, first compound 3.16 µM
[24] = second compound 1 µM, first compound 10 µM
[25] = second compound 3.16 µM, first compound 0.0316 µM
[26] = second compound 3.16 µM, first compound 0.1 µM
[27] = second compound 3.16 µM, first compound 0.316 µM
[28] = second compound 3.16 µM, first compound 1 µM
[29] = second compound 3.16 µM, first compound 3.16 µM
[30] = second compound 3.16 µM, first compound 10 µM
[31] = second compound 10 µM, first compound 0.0316 µM
[32] = second compound 10 µM, first compound 0.1 µM
[33] = second compound 10 µM, first compound 0.316 µM
[34] = second compound 10 µM, first compound 1 µM
[35] = second compound 10 µM, first compound 3.16 µM
[36] = second compound 10 µM, first compound 10 µM
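Also: spheroids exposed to compounds for seven days before readout.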

CC1COCCN1c1cc(C2(S(C)(=N)=O)CC2)nc(-c2ccnc3[nH]ccc23)n1 (stereo unspecified) + CN(C)c1ccc(Nc2c3ccc(NC(=O)CCN4CCCC4)cc3nc3cc(NC(=O)CCN4CCCC4)ccc23)cc1
IC50 (second compound 0.0316 µM): > 10 µM | IC50 (second compound 0.1 µM): > 10 µM | IC50 (second compound 0.316 µM): > 10 µM | IC50 (second compound 1 µM): > 10 µM | IC50 (second compound 3.16 µM): > 10 µM | IC50 (second compound 10 µM): > 10 µM | viability, T/C [1]: 104% | viability, T/C [2]: 96.5% | viability, T/C [3]: 106% | viability, T/C [4]: 97% | viability, T/C [5]: 95.5% | viability, T/C [6]: 69.4% | viability, T/C [7]: 109% | viability, T/C [8]: 93.8% | viability, T/C [9]: 110% | viability, T/C [10]: 86.1% | viability, T/C [11]: 87% | viability, T/C [12]: 74% | viability, T/C [13]: 103% | viability, T/C [14]: 91.4% | viability, T/C [15]: 94.3% | viability, T/C [16]: 83.7% | viability, T/C [17]: 87.5% | viability, T/C [18]: 69.9% | viability, T/C [19]: 93.3% | viability, T/C [20]: 96.4% | viability, T/C [21]: 100% | viability, T/C [22]: 93.1% | viability, T/C [23]: 91.5% | viability, T/C [24]: 68.5% | viability, T/C [25]: 95.8% | viability, T/C [26]: 101% | viability, T/C [27]: 103% | viability, T/C [28]: 90.8% | viability, T/C [29]: 93.4% | viability, T/C [30]: 69.6% | viability, T/C [31]: 86.7% | viability, T/C [32]: 91.8% | viability, T/C [33]: 91.9% | viability, T/C [34]: 88.1% | viability, T/C [35]: 86% | viability, T/C [36]: 69.8%

COc1ccc([C@@H](O)c2cc(-c3ncnc4cc(N5CCOCC5)ccc34)c(F)cc2Cl)nn1 + CN(C)c1ccc(Nc2c3ccc(NC(=O)CCN4CCCC4)cc3nc3cc(NC(=O)CCN4CCCC4)ccc23)cc1
IC50 (second compound 0.0316 µM): 8.39 µM | IC50 (second compound 0.1 µM): > 10 µM | IC50 (second compound 0.316 µM): 9.75 µM | IC50 (second compound 1 µM): 8.02 µM | IC50 (second compound 3.16 µM): 8.26 µM | IC50 (second compound 10 µM): 6.96 µM | viability, T/C [1]: 97.4% | viability, T/C [2]: 98.5% | viability, T/C [3]: 94.6% | viability, T/C [4]: 87.2% | viability, T/C [5]: 67.2% | viability, T/C [6]: 46.9% | viability, T/C [7]: 99.3% | viability, T/C [8]: 101% | viability, T/C [9]: 89.4% | viability, T/C [10]: 81.2% | viability, T/C [11]: 72.9% | viability, T/C [12]: 50% | viability, T/C [13]: 97.2% | viability, T/C [14]: 96.7% | viability, T/C [15]: 89.3% | viability, T/C [16]: 82.3% | viability, T/C [17]: 68.5% | viability, T/C [18]: 49.3% | viability, T/C [19]: 93.6% | viability, T/C [20]: 103% | viability, T/C [21]: 100% | viability, T/C [22]: 79% | viability, T/C [23]: 74.3% | viability, T/C [24]: 44.4% | viability, T/C [25]: 102% | viability, T/C [26]: 96.4% | viability, T/C [27]: 98.7% | viability, T/C [28]: 83.3% | viability, T/C [29]: 68.4% | viability, T/C [30]: 46.3% | viability, T/C [31]: 88.8% | viability, T/C [32]: 77.3% | viability, T/C [33]: 90.5% | viability, T/C [34]: 72.8% | viability, T/C [35]: 63.8% | viability, T/C [36]: 44%

O=C(c1cc(Cc2n[nH]c(=O)c3ccccc23)ccc1F)N1CCN(C(=O)C2CC2)CC1 + CN(C)c1ccc(Nc2c3ccc(NC(=O)CCN4CCCC4)cc3nc3cc(NC(=O)CCN4CCCC4)ccc23)cc1
IC50 (second compound 0.0316 µM): > 10 µM | IC50 (second compound 0.1 µM): > 10 µM | IC50 (second compound 0.316 µM): > 10 µM | IC50 (second compound 1 µM): > 10 µM | IC50 (second compound 3.16 µM): > 10 µM | IC50 (second compound 10 µM): > 10 µM | viability, T/C [1]: 111% | viability, T/C [2]: 100% | viability, T/C [3]: 93.4% | viability, T/C [4]: 102% | viability, T/C [5]: 107% | viability, T/C [6]: 90.8% | viability, T/C [7]: 107% | viability, T/C [8]: 94.2% | viability, T/C [9]: 104% | viability, T/C [10]: 95.9% | viability, T/C [11]: 103% | viability, T/C [12]: 96% | viability, T/C [13]: 99.2% | viability, T/C [14]: 89.1% | viability, T/C [15]: 95.9% | viability, T/C [16]: 98.9% | viability, T/C [17]: 100% | viability, T/C [18]: 97.2% | viability, T/C [19]: 93.2% | viability, T/C [20]: 88.7% | viability, T/C [21]: 98.5% | viability, T/C [22]: 93.6% | viability, T/C [23]: 113% | viability, T/C [24]: 89.9% | viability, T/C [25]: 97.1% | viability, T/C [26]: 90.7% | viability, T/C [27]: 92.5% | viability, T/C [28]: 89.3% | viability, T/C [29]: 103% | viability, T/C [30]: 92% | viability, T/C [31]: 91.1% | viability, T/C [32]: 84.6% | viability, T/C [33]: 88% | viability, T/C [34]: 82.9% | viability, T/C [35]: 96.2% | viability, T/C [36]: 90.6%
